ChEMBL document CHEMBL1201862, “PubChem BioAssay data set” (2004)
Calls of active or inactive are those of the source.

Key:
[1] = ADAM10 inhibitors, peptide cleavage, dose response, biochemical, QFRET (AID 743254);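 note: ADAM10 enzyme with the DM2 quenched FRET peptide as substrate; EDANS fluorescence gain as the protease cuts the substrate; inhibitor potency against ADAM10 proteolytic activity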
[2] = target: T1, Short transient receptor potential channel 4 (Mus musculus, UniProt Q9QUQ5); test: TRPC4 positive allosteric modulators, dose response, cell-based, HEK293 TRPC4/mu-opioid, Fluo-4 calcium, EC20 DAMGO (AID 434941); assay type: functional
T1 sequence (Q9QUQ5 whole entry): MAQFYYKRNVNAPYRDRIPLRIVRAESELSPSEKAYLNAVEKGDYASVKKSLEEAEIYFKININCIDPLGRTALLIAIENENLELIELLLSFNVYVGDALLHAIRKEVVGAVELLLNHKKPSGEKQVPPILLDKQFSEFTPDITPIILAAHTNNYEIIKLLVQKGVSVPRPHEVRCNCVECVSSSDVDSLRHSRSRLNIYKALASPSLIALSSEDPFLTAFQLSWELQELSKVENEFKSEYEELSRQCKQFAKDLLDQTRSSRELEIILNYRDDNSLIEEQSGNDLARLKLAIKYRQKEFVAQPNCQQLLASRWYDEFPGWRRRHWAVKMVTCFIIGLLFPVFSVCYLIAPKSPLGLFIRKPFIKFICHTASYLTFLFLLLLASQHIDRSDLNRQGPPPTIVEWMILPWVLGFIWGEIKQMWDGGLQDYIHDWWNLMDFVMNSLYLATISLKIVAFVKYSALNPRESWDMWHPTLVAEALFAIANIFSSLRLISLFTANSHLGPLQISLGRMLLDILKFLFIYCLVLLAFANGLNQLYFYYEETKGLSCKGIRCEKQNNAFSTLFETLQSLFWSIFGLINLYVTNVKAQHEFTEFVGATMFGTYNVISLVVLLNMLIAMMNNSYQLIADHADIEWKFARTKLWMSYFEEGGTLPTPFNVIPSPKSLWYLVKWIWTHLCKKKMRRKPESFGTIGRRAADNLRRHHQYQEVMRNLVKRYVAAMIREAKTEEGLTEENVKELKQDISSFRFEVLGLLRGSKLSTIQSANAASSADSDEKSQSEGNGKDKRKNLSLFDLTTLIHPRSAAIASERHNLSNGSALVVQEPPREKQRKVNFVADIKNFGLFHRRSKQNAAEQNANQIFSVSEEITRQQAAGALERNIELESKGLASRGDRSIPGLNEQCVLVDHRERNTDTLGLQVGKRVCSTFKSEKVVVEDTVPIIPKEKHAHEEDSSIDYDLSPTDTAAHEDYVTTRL

[3] = target: Disintegrin and metalloproteinase domain-containing protein 17 (Homo sapiens, UniProt P78536); test: ADAM17 protease inhibitors, dose response, counter-screen for ADAM10 exosite inhibitor project, biochemical, quenched FRET substrate (AID 743253)
[4] = target: G-protein coupled receptor 55 (Homo sapiens, UniProt Q9Y2T6); test: GPR55 agonists via beta-arrestin recruitment, primary screen, imaging, U2OS cells, beta-arrestin-GFP redistribution (AID 1961); assay type: functional
Estrogen receptor = target: T2, Estrogen receptor (Homo sapiens, UniProt P03372); test: potentiators of ERα–SRC-1 coactivator binding, dose response, biochemical, TR-FRET, ERα LBD (AID 737)
T2 sequence (P03372 whole entry): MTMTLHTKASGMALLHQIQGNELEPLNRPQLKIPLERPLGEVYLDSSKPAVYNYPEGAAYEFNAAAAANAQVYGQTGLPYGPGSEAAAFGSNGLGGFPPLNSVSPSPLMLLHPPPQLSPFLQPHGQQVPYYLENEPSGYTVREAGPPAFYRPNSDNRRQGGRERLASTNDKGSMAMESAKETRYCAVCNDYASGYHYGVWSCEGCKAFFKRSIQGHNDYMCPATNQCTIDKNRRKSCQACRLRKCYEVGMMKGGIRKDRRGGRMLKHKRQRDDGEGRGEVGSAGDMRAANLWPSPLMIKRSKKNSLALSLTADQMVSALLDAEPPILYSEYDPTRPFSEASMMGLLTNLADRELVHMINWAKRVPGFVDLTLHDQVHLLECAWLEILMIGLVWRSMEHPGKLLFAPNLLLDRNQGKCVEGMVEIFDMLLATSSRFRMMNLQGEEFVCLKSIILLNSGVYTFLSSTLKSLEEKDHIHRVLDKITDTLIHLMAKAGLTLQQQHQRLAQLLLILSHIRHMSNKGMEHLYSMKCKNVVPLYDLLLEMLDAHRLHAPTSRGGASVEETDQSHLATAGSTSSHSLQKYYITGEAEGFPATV

[5] = target: T3, Polyadenylate-binding protein 1 (Homo sapiens, UniProt P11940); test: PABP1 MLLE–PAM2 interaction inhibitors, dose response, miRNA deadenylation inhibitor project, biochemical, fluorescence polarization, Cy5-PAM2 peptide, secondary (AID 602260); assay type: functional; settings: read-out: IC50_Mean
Troponin, cardiac muscle = Troponin, cardiac muscle (Homo sapiens, UniProt P19429+P45379+P63316); test: inhibitors of cardiac thin filament calcium sensitivity, dose response, biochemical, fluorescence, cardiac regulated thin filaments, triplicate IC50 (AID 504742); assay type: protein-complex assay
[6] = target: T4, Small ubiquitin-related modifier 2 (Homo sapiens, UniProt P61956); test: SUMO2–SIM peptide binding inhibitors, dose response, selectivity assay for SUMO1 interaction inhibitor project, biochemical, fluorescence polarization, uHTS hits (AID 624385); assay type: functional; settings: read-out: IC50_Mean
ORF 73 = target: T5, ORF 73 (Human herpesvirus 8, UniProt O40947); test: inhibitors of C-LANA binding to LBS DNA, dose response, biochemical, fluorescence polarization, cherry-picked samples (AID 504725); design: species or system Human gammaherpesvirus 8;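 note: fluorescence polarization of a labeled DNA duplex reporting LANA DNA binding; potency is for inhibitors that block LANA binding to the DNA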
T5 sequence (O40947 whole entry): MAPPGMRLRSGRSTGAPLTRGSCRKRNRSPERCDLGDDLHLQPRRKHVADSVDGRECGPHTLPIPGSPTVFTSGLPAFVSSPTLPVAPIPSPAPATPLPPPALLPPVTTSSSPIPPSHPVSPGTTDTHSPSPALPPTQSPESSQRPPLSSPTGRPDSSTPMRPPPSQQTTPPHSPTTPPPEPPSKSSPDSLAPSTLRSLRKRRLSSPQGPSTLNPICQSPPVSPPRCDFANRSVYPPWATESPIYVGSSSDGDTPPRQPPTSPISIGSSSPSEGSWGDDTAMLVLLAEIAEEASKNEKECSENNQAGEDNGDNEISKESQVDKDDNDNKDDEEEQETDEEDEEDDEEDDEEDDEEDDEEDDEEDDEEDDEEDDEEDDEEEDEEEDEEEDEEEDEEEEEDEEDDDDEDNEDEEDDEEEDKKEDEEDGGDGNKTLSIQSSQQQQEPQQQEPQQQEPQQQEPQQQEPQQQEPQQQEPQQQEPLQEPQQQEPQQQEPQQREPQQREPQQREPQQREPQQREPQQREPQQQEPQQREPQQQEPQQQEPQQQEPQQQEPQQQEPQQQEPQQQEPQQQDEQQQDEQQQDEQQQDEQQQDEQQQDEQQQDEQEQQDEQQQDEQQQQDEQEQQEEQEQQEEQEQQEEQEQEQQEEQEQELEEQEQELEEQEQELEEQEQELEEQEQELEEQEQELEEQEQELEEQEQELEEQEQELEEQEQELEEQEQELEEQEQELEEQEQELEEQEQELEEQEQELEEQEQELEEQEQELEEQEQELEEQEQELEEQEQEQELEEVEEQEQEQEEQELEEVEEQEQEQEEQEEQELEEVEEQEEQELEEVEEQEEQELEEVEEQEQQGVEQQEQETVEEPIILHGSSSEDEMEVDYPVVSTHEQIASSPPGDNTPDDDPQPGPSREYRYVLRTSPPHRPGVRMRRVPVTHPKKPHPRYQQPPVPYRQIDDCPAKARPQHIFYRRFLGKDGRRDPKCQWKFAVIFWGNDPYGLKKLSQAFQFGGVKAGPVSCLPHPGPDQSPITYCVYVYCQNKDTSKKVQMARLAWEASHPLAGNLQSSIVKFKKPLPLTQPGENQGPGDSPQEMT

[7] = target: T3, Polyadenylate-binding protein 1; test: PABP1 MLLE–PAM2 binding inhibitor potency, dose response, biochemical, fluorescence polarization, FITC-PAM2 peptide (AID 602259); assay type: functional; settings: read-out: IC50_Mean
[8] = target: T6, Small ubiquitin-related modifier 1 (Homo sapiens, UniProt P63165); test: inhibitors of SUMO1 partner interactions, dose response, biochemical, FRET (AID 624383); assay type: functional; settings: read-out: IC50_Mean
[9] = target: T7, Rac GTPase-activating protein 1 (Homo sapiens, UniProt Q9H0H5); test: MgcRacGAP GTPase-activating activity inhibitors, confirmation, biochemical, ADP Hunter fluorescence, primary and confirmatory (AID 624330); assay type: functional
T7 sequence (Q9H0H5 whole entry): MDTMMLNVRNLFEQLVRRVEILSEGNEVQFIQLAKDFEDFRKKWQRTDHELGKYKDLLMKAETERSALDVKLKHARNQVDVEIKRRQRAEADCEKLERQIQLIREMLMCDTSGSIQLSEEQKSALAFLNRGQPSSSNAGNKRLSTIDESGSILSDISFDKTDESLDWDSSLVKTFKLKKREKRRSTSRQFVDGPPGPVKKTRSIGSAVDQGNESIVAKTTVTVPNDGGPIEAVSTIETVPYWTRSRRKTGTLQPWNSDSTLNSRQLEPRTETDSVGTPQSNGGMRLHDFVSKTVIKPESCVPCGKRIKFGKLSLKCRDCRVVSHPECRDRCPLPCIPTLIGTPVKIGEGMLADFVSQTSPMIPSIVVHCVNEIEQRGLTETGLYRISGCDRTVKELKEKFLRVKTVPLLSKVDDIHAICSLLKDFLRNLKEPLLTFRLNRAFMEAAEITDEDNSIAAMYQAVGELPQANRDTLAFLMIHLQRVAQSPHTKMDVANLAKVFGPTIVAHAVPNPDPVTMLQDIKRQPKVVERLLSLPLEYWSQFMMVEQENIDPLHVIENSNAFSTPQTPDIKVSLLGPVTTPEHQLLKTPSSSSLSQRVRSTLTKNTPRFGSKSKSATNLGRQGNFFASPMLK

Salmon testes DNA = test: DNA intercalators displacing acridine orange, dose response, artefact control for KSHV LANA DNA-binding inhibitor project, biochemical, fluorescence polarization, cherry-picked samples, set 2 (AID 504727); design: species or system Salmonidae
[10] = target: T4, Small ubiquitin-related modifier 2; test: inhibitors of SUMO2 protein-protein interaction, dose response, selectivity assay for SUMO1 interaction inhibitor project, biochemical, FRET, human SUMO2, uHTS hits (AID 624384); assay type: functional; settings: read-out: IC50_Mean
[11] = target: T6, Small ubiquitin-related modifier 1; test: inhibitors of SUMO1 peptide binding, dose response, biochemical, fluorescence polarization, uHTS hits (AID 624382); assay type: functional; settings: read-out: IC50_Mean
Hexokinase HKDC1 = target: T8, Hexokinase HKDC1 (Homo sapiens, UniProt Q2TB90); test: HKDC1 hexokinase inhibitors, dose response, biochemical, W721R variant (AID 504729); assay type: functional
T8 sequence (Q2TB90 whole entry): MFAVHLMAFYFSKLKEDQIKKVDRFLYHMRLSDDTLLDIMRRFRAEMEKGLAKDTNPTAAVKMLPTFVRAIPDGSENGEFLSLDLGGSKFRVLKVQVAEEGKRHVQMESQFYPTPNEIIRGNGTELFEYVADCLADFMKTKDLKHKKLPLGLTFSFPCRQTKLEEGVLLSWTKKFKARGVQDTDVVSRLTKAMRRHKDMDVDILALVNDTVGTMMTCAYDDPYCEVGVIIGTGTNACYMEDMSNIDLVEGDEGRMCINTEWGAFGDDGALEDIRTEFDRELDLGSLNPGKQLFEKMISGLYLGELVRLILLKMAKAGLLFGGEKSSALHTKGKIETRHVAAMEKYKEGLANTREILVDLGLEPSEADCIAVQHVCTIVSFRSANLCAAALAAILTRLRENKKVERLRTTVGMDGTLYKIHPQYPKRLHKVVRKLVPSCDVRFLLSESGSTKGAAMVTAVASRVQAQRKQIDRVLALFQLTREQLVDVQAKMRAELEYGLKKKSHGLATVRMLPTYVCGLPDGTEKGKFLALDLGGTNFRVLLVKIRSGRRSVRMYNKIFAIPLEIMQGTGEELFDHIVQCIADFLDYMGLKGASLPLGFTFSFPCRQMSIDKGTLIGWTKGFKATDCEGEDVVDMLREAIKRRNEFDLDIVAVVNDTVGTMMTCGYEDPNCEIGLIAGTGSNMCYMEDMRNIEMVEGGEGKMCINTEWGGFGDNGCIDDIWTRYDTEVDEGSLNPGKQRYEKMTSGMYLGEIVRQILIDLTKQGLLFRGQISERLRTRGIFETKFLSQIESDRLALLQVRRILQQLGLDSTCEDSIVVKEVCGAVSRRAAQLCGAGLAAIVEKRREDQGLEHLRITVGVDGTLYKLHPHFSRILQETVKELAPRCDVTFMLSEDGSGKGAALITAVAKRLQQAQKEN

HeLa = test: HeLa cell cytotoxicity, dose response, cytotoxicity control, 24 h, cherry-picked samples (AID 504726); assay type: functional, cell-based; settings: Homo sapiens;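 note: potency for cytotoxicity as loss of luminescence signal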
Genome polyprotein = Genome polyprotein (dengue virus type 2, UniProt P29990); test: Dengue-2 NS5 methyltransferase inhibitors, primary screen, biochemical, confirmation dose response (AID 588689); assay type: functional

## O=C(NCc1ccccc1)C1=C[C@H](c2ccc(Br)cc2)C[C@H](OCc2ccc(CO)cc2)O1
[1]
  IC50: > 69.5 µM (inactive)
[2]
  EC50: 10.6 µM (active)
[3]
  IC50: > 69.5 µM (inactive)

## Cc1noc(C)c1COC(=O)c1cc2c3ccccc3n(C)c2s1
[4]
  EC50: 20.4 µM (inactive)
Estrogen receptor
  EC50: 23.1 µM (active)

## O=S(=O)(O)c1ccc(O)c2cc(Nc3ccccc3)ccc12
[5]
  IC50: > 66 µM (inactive)
Troponin, cardiac muscle
  IC50: 3.89 µM (active)
[6]
  IC50: 7.83 µM (active)
ORF 73
  AC50: 6.72 µM (active)
[7]
  IC50: > 66 µM (inactive)
[8]
  IC50: 0.88 µM (active)
[9]
  IC50: 19.6 µM (active)
Salmon testes DNA
  AC50: 98.3 µM (active)
[10]
  IC50: 0.58 µM (active)
[11]
  IC50: 11.6 µM (active)
Hexokinase HKDC1
  IC50: 9.14 µM (active)
HeLa
  AC50: 233 µM (active)
Genome polyprotein
  IC50: 20 µM (active)
